{"source": "patent US20120088807A1", "about": "“INTERLACED METHOD FOR TREATING CANCER OR A PRECANCEROUS CONDITION” (TAU THERAPEUTICS LLC, priority 2009, published 2012)", "key": {"D54 tumors [1]": {"tested_on": "D54 tumors", "experiment": "Interlaced therapy, human glioblastoma murine xenograft model (Example 4)", "type": "in vivo, Mice", "procedure": "Studies of interlaced therapy for human glioblastoma in a murine xenograft model using the D54 cell line were conducted. Mice bearing subcutaneous implants of D54 tumors, which were allowed to become established at a volume of about 100 mm^3, were treated with mibefradil at 40 mg/kg p.o. q.i.d. for 7 days or left untreated. On day seven, all animals received the S phase cytotoxin temozolamide at a dose of 25% of the LD10 over five days. Following two days of no treatment, mibefradil was re-started at a dose of 35 mg/kg p.o. q.i.d. in the group of mice which were originally treated with mibefradil. On day 20, the mean tumor volume in the temozolamide only group of mice was 173 mm^3 as compared to the temozolamide plus mibefradil group of mice, whose mean tumor volume was 102 mm^3 (p=0.0485; n=10/group; Student's pooled, two tailed t-test). A pooled, two tailed. Student's t-test over all seven tumor volume measurements yielded p=0.0329. There were no animals that were euthanized in either group due to tumor size. The mean volume in the control group, which received no intervention, was 1214 mm^3 with three animals euthanized because of tumor size."}, "D54 tumors [2]": {"tested_on": "D54 tumors", "experiment": "Interlaced therapy, human glioblastoma murine xenograft model, two cytotoxin rounds (Example 5)", "type": "in vivo, Mice", "conditions": "over 30 days; subcutaneous D54; temozolamide 25% then 10% of LD10; mibefradil 40 then 35 mg/kg p.o. q.i.d.", "quoted_text": "Further studies of interlaced therapy for human glioblastoma in a murine xenograft model using the D54 cell line were conducted. Mice bearing subcutaneous implants of D54 tumors, which were allowed to become established, were treated with mibefradil at 40 mg/kg p.o. q.i.d. for 7 days or left untreated. On day seven, all animals received the S phase cytotoxin temozolamide at a dose of 25% of the LD10 over five days. Following two days of no treatment, mibefradil was re-started at a dose of 35 mg/kg p.o. q.i.d. in the group of mice which were originally treated with mibefradil."}, "A10 cells": {"tested_on": "A10 cells", "experiment": "Cell cycle analysis using flow cytometry and BUdR staining", "type": "cell-based", "procedure": "Cell cycle analysis was performed using flow cytometry and BUdR staining. In FIG. 3, “Con” represents untreated, control cells. All other cell cultures were treated with nocodazole, which interferes with microtubule polymerization and blocks the cell cycle during M phase. […] Because A10 cells reside primarily in the cell cycle checkpoint between G0 and G1 (See “Con” in FIG. 3), evaluating the possibility that a pharmacologic agent inhibits transit out of that phase is not as straightforward as determining blockade at other cell cycle checkpoints. Therefore, cell cultures were treated for 24 hours with T channel calcium channel blockers mibefradil (mib), nickel (Ni) or TTL-1177 (a proprietary compound owned by the assignee Tau Therapeutics), before adding nocodazole. Absent an effect on the T channel blockers, cells would be locked at the cell cycle checkpoint between G2 and M by nocodazole as happened with cells treated with it alone."}, "PANC 219 tumor": {"tested_on": "PANC 219 tumor", "type": "in vivo", "conditions": "mibefradil 65 mg/kg p.o. b.i.d.", "procedure": "Pancreatic cancers resected from patients were immediately transplanted into the flanks of nude mice and maintained by serial, in vivo passage. Transplanted tumors were implanted at a volume of about 100 mm^3 and allowed to grow to 200 to 300 mm^3 before initiation of treatment. Mice bearing the PANC 219 tumor were either left untreated or treated with mibefradil at 65 mg/kg p.o. b.i.d. (n=10 in each group). Tumor growth was normalized to the size measured at the start of treatment."}, "[3]": {"conditions": "A10 cells treated 24 hours with T channel blocker before adding nocodazole"}}}
{"smiles": "Cn1nnc2c(C(N)=O)ncn2c1=O", "note": "[temozolamide]", "values": [{"measurement": "mean tumor volume", "setting": "D54 tumors [1]; day 20, subcutaneous D54, temozolamide 25% of LD10 over five days, mibefradil 40 then 35 mg/kg p.o. q.i.d., n=10/group", "value": 173, "unit": "mm^3"}, {"measurement": "animals euthanized due to tumor size", "setting": "D54 tumors [1]; subcutaneous D54, n=10/group", "value": "no animals"}, {"measurement": "mean tumor volume", "setting": "D54 tumors [2]", "value": "156±65", "unit": "mm^3"}]}
{"smiles": "COCC(=O)O[C@]1(CCN(C)CCCc2nc3ccccc3[nH]2)CCc2cc(F)ccc2[C@@H]1C(C)C", "note": "[mibefradil]", "values": [{"measurement": "effect on cell cycle transit", "setting": "A10 cells; [3]", "value": "arrested cells at the cell cycle checkpoint between G0 and G1"}, {"measurement": "tumor regression", "setting": "PANC 219 tumor; PANC 219 tumor in nude mice", "value": "did not cause tumor regression"}, {"measurement": "tumor growth", "setting": "PANC 219 tumor; PANC 219 tumor, growth normalized to size at start of treatment", "value": "controlled tumor growth"}, {"measurement": "deaths in treatment group", "setting": "PANC 219 tumor; n=10, day 9", "value": "One mouse in the treatment group died"}]}
{"smiles": "[Ni]", "note": "[nickel]", "values": [{"measurement": "effect on cell cycle transit", "setting": "A10 cells; [3]", "value": "arrested cells at the cell cycle checkpoint between G0 and G1"}]}
{"smiles": "COC(=O)Nc1nc2ccc(C(=O)c3cccs3)cc2[nH]1", "note": "[nocodazole]", "values": [{"measurement": "effect on cell cycle transit", "setting": "A10 cells; A10 cells, nocodazole alone", "value": "blocked cell cycle transit through M phase"}]}
